Results from ChEMBL document CHEMBL3612016, “1,4-Disubstituted aromatic piperazines with high 5-HT2A/D2 selectivity: Quantitative structure-selectivity investigations, docking, synthesis and biological evaluation” (Bioorg Med Chem, 2015).
pEC50, pKi: −log10 of the molar value.

Key:
D(1A) dopamine receptor = D(1A) dopamine receptor (Homo sapiens, UniProt P21728); assay: biochemical; assay type: cell-based, CHO
Description: Displacement of [3H]SCH23990 from human dopamine D1 receptor expressed in CHO cell membranes by radioligand competition binding assay

D(2) dopamine receptor [1] = biological target: T1, D(2) dopamine receptor (Homo sapiens, UniProt P14416); assay type: functional, cell-based, HEK293
T1 sequence (P14416 whole entry): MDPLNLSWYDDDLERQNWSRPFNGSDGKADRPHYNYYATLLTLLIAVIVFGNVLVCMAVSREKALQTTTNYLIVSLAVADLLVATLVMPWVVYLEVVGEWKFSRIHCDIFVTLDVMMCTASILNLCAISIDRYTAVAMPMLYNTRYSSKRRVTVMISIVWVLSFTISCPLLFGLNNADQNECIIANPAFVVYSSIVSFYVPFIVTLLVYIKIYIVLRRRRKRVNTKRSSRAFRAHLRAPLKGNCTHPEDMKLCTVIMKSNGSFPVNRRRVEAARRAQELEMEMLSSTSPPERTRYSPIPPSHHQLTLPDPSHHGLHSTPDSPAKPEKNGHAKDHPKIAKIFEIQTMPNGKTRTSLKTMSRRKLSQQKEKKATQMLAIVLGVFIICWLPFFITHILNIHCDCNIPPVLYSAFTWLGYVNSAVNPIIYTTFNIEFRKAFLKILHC

D(4) dopamine receptor = biological target: T2, D(4) dopamine receptor (Homo sapiens, UniProt P21917); assay: biochemical; assay type: cell-based, CHO
T2 sequence (P21917 whole entry): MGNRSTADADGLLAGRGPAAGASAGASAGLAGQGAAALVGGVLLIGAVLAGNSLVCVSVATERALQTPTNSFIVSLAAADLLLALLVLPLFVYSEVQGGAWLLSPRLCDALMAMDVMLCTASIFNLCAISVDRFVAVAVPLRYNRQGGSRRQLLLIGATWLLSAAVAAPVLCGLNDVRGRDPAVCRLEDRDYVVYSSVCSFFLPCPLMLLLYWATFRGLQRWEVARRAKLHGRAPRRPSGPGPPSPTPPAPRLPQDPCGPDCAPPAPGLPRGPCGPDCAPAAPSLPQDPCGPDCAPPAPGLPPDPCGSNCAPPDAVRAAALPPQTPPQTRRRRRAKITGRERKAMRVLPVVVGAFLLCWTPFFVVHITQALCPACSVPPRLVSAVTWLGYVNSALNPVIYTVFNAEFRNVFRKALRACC
Description: Displacement of [3H]spiperone from human dopamine D4.4 receptor expressed in CHO cell membranes by radioligand competition binding assay

D(2) dopamine receptor [2] = biological target: T1, D(2) dopamine receptor; assay: biochemical; assay type: cell-based, CHO
Description: Displacement of [3H]spiperone from human dopamine D2L receptor expressed in CHO cell membranes by radioligand competition binding assay

D(2) dopamine receptor [3] = biological target: T1, D(2) dopamine receptor; assay: biochemical; assay type: cell-based, CHO; remark: listed apart in the source
Description: Displacement of [3H]spiperone from human dopamine D2S receptor expressed in CHO cell membranes by radioligand competition binding assay

D(2) dopamine receptor [4] = biological target: T1, D(2) dopamine receptor
Description: Activity at dopamine D2S receptor (unknown origin) expressed in HEK293 cell membranes co-expressing Galpha protein subunit Galphai2 by [35S]GTPgammaS binding assay

D(3) dopamine receptor = D(3) dopamine receptor (Homo sapiens, UniProt P35462); assay: biochemical; assay type: cell-based, CHO
Sequence of D(3) dopamine receptor (P35462 whole entry): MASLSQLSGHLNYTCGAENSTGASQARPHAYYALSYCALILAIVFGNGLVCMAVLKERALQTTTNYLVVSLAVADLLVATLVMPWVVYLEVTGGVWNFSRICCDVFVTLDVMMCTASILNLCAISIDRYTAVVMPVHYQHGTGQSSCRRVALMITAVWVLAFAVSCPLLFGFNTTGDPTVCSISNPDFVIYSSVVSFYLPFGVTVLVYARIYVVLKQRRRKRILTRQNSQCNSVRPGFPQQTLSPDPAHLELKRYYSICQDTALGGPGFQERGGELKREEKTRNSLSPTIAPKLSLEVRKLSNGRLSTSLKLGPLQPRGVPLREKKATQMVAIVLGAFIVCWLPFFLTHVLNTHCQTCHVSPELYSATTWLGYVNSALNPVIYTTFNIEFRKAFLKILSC
Description: Displacement of [3H]spiperone from human dopamine D3 receptor expressed in CHO cell membranes by radioligand competition binding assay

[5] = biological target: 5-hydroxytryptamine receptor 2A (Homo sapiens, UniProt P28223); assay: biochemical; assay type: cell-based, HEK293
Sequence of 5-hydroxytryptamine receptor 2A (P28223 whole entry): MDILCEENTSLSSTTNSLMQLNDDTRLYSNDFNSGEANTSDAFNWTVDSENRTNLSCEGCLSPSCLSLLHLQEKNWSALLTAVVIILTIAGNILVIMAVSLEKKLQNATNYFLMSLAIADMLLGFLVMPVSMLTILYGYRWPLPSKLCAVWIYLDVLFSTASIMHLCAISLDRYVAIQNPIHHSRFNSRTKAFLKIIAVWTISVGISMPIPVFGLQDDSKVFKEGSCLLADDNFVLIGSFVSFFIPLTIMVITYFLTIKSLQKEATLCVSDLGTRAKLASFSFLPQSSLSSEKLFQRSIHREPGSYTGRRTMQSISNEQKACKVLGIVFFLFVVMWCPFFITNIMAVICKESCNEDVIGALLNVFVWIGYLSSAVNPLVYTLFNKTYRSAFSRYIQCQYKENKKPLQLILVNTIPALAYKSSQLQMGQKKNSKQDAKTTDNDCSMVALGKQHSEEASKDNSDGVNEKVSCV
Description: Displacement of [3H]ketanserin from human 5-HT2A receptor expressed in HEK293 cell membranes by radioligand competition binding assay

D(2) dopamine receptor [6] = biological target: T1, D(2) dopamine receptor; assay type: cell-based; conditions: hek293
Description: Activity at pro-link-tagged D2S-ARMS2PK2 (unknown origin) expressed in HEK293 cells by beta-arrestin-2 recruitment assay

Sequence of D(1A) dopamine receptor (P21728 whole entry): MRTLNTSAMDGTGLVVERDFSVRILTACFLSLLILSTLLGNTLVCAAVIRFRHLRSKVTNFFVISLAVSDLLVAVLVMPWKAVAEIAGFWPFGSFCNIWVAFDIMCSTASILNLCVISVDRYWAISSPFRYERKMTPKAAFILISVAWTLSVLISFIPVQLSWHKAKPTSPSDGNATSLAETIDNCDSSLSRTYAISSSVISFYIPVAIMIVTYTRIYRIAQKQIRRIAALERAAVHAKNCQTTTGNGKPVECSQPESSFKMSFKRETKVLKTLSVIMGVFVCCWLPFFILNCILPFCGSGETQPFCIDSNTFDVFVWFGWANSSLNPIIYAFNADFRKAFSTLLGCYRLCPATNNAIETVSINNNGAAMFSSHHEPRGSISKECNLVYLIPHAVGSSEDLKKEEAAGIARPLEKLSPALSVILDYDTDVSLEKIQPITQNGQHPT

| Compound | pKi (D(1A) dopamine receptor) | pEC50 (D(2) dopamine receptor [1]) | pKi (D(4) dopamine receptor) | pKi (D(2) dopamine receptor [2]) | pKi (D(2) dopamine receptor [3]) | pEC50 (D(2) dopamine receptor [4]) | pKi (D(3) dopamine receptor) | pKi [5] | EC50 (D(2) dopamine receptor [6]) |
| --- | --- | --- | --- | --- | --- | --- | --- | --- | --- |
| O=Cc1cnn2ccc(-n3cc(CCCN4CCN(c5cccc(Cl)c5Cl)CC4)nn3)cc12 | 6.68 | 6.72 | 6.89 | 8.17 | 8.42 | 6.02 | 7.92 | 8.16 | Not Active |
| Clc1cccc(N2CCN(CCCCc3cn(-c4ccn5nccc5c4)nn3)CC2)c1Cl | 6.96 | 6.13 | 7.12 | 7.64 | 8.14 | – | 9.51 | 9.19 | Not Active |
| COc1ccccc1N1CCN(CCCc2cn(-c3ccn4nccc4c3)nn2)CC1 | 5.77 | 6.01 | 7.43 | 6.85 | 7.09 | – | 7.11 | 7.08 | Not Active |
| COc1ccc(Cn2nnc(C(=O)NCCCCN3CCN(c4ccccc4OC)CC3)c2C)cc1 | – | – | – | – | – | – | – | 6.85 | – |
| COc1ccccc1N1CCN(CCCCNC(=O)c2nnn(Cc3ccccc3Br)c2C)CC1 | – | – | – | 7.77 | – | – | – | 6.82 | – |
| CCCc1c(C(=O)NCCCCN2CCN(c3cccc(Cl)c3Cl)CC2)nnn1Cc1ccccc1 | – | – | – | 8.19 | – | – | – | 8.60 | – |
| COc1ccc(Cn2nnc(C(=O)NCCCCCN3CCN(c4cccc(Cl)c4Cl)CC3)c2C)cc1 | – | – | – | 8.82 | – | – | – | 8.49 | – |
| O=Cc1cnn2ccc(-n3cc(CCN4CCN(c5cccc(Cl)c5Cl)CC4)nn3)cc12 | 6.80 | 6.70 | 5.52 | 7.96 | 8.10 | 5.45 | 7.49 | 7.30 | Not Active |
| CCCc1c(C(=O)NCCCCCN2CCN(c3ccccc3OC)CC2)nnn1Cc1ccccc1Br | – | – | – | 9.04 | – | – | – | 7.21 | – |
| COc1ccccc1N1CCN(CCNC(=O)c2cnn3ccccc23)CC1 | – | – | – | – | – | – | – | 6.24 | – |
| COc1ccccc1N1CCN(CCCCCNC(=O)c2nnn(Cc3ccccc3)c2C)CC1 | – | – | – | 8.60 | – | – | – | 6.85 | – |
| COc1ccccc1N1CCN(CCCNC(=O)c2cc3ccccn3n2)CC1 | – | – | – | – | – | – | – | 6.25 | – |
| CCCc1c(C(=O)NCCCCN2CCN(c3ccccc3OC)CC2)nnn1Cc1ccccc1Br | – | – | – | 8.52 | – | – | – | 7.36 | – |
| Cc1c(C(=O)NCCCCN2CCN(c3cccc(Cl)c3Cl)CC2)nnn1Cc1ccccc1 | – | – | – | 7.85 | – | – | – | 8.13 | – |
| COc1ccccc1N1CCN(CCCCCNC(=O)c2cc3ccccn3n2)CC1 | – | – | – | – | – | – | – | 6.66 | – |
| Clc1cccc(N2CCN(CCCc3cn(-c4ccn5nccc5c4)nn3)CC2)c1Cl | 6.96 | 5.95 | 7.38 | 6.89 | 7.27 | – | 8.07 | 8.28 | Not Active |
| COc1ccccc1N1CCN(CCCCNC(=O)c2nnn(Cc3ccccc3)c2C)CC1 | – | – | – | 7.46 | – | – | – | 6.21 | – |
| COc1ccccc1N1CCN(CCCCCNC(=O)c2cnn3ccccc23)CC1 | – | – | – | – | – | – | – | 6.89 | – |
| O=C(NCCCCN1CCN(c2cccc(Cl)c2Cl)CC1)c1cc2ccccc2[nH]1 | – | – | – | – | – | – | – | 7.51 | – |
| CCCc1c(C(=O)NCCCCN2CCN(c3ccccc3OC)CC2)nnn1Cc1ccc(OC)cc1 | – | – | – | 8.15 | – | – | – | 7.54 | – |
| Clc1cccc(N2CCN(CCc3cn(-c4ccn5nccc5c4)nn3)CC2)c1Cl | 6.92 | 6.32 | 6.74 | 7.66 | 8.00 | 5.96 | 8.66 | 8.15 | Not Active |
| CCCc1c(C(=O)NCCCCN2CCN(c3ccccc3OC)CC2)nnn1Cc1ccccc1 | – | – | – | 8.19 | – | – | – | 6.96 | – |
| COc1ccccc1N1CCN(CCCCCNC(=O)c2nnn(Cc3ccccc3Br)c2C)CC1 | – | – | – | 9.24 | – | – | – | 7.39 | – |
| COc1ccc(Cn2nnc(C(=O)NCCCCCN3CCN(c4ccccc4OC)CC3)c2C)cc1 | – | – | – | 8.57 | – | – | – | 7.03 | – |
| COc1ccccc1N1CCN(CCc2cn(-c3ccn4ncc(C=O)c4c3)nn2)CC1 | 6.21 | 6.26 | 7.01 | 7.74 | 8.03 | 5.36 | 8.07 | 7.05 | Not Active |
| O=Cc1cnn2ccc(-n3cc(CCCCN4CCN(c5cccc(Cl)c5Cl)CC4)nn3)cc12 | 5.82 | 6.16 | 5.85 | 6.96 | 7.29 | 5.73 | 8.36 | 7.82 | Not Active |
